From ChEMBL document CHEMBL1153634, “Synthesis of novel triterpenoid (lupeol) derivatives and their in vivo antihyperglycemic and antidyslipidemic activity” (2009) come the findings set out here.

Test [1] has as its system Syrian golden hamster. Description: Antidyslipidemic activity in high fat diet fed dyslipidemic golden Syrian hamster model assessed as change in plasma glycerol level at 50 mg/kg, po administered once daily from day 4 to day 10 measured on day 10 after 2 hrs of last dose relative to baseline. The format is functional, Mesocricetus auratus.
Test [2] has as its system Rattus norvegicus. Description: Antihyperglycemic activity in sucrose challenged albino Sprague-Dawley rat STZ-S model assessed as decrease in blood glucose level at 100 mg/kg, po preincubated 30 min before sucrose challenge measured 5 hrs after last dose. It counts as functional. Also noted: scale not given: the % may be the effect or the level left.
Test [3] relates to Syrian golden hamster. The test can be described thus: Antidyslipidemic activity in high fat diet fed dyslipidemic golden Syrian hamster model assessed as change in plasma HDL-cholesterol level at 50 mg/kg, po administered once daily from day 4 to day 10 measured on day 10 after 2 hrs of last dose relative to baseline. It counts as functional, Mesocricetus auratus.
In test [4] the test system is Syrian golden hamster. The test can be described thus: Antidyslipidemic activity in high fat diet fed dyslipidemic golden Syrian hamster model assessed as change in plasma triglyceride level at 50 mg/kg, po administered once daily from day 4 to day 10 measured on day 10 after 2 hrs of last dose relative to baseline. It counts as functional, Mesocricetus auratus.
Test [5] relates to Rattus norvegicus. Description: Antihyperglycemic activity in sucrose challenged albino Sprague-Dawley rat STZ-S model assessed as decrease in blood glucose level at 100 mg/kg, po preincubated 30 min before sucrose challenge measured 24 hrs after last dose. Also noted: scale not given: the % may be the effect or the level left. The format is functional.
In test [6] the test system is Syrian golden hamster. Description: Antidyslipidemic activity in high fat diet fed dyslipidemic golden Syrian hamster model assessed as change in plasma […] level at 50 mg/kg, po administered once daily from day 4 to day 10 measured on day 10 after 2 hrs of last dose relative to baseline. The format is functional, Mesocricetus auratus.
Test [7] has as its system Syrian golden hamster. The test can be described thus: Antidyslipidemic activity in high fat diet fed dyslipidemic golden Syrian hamster model assessed as change in plasma HDL to cholesterol ratio at 50 mg/kg, po administered once daily from day 4 to day 10 measured on day 10 after 2 hrs of last dose relative to baseline. The format is functional, Mesocricetus auratus.

In test [8] the test system is Syrian golden hamster. The test can be described thus: Antidyslipidemic activity in high fat diet fed dyslipidemic golden Syrian hamster model assessed as change in food intake at 50 mg/kg, po administered once daily from day 4 to day 10 measured on day 10 after 2 hrs of last dose relative to baseline. It counts as functional, Mesocricetus auratus.
The subject of test [9] is Syrian golden hamster. Description: Antidyslipidemic activity in high fat diet fed dyslipidemic golden Syrian hamster model assessed as change in plasma cholesterol level at 50 mg/kg, po administered once daily from day 4 to day 10 measured on day 10 after 2 hrs of last dose relative to baseline. The format is functional, Mesocricetus auratus.
For test [10], the system named is Syrian golden hamster. Description: Antidyslipidemic activity in high fat diet fed dyslipidemic golden Syrian hamster model assessed as change in plasma free fatty acid level at 100 mg/kg, po administered once daily from day 4 to day 10 measured on day 10 after 2 hrs of last dose relative to baseline. The format is functional, Mesocricetus auratus.
Test [11] deals with Syrian golden hamster. The test can be described thus: Antidyslipidemic activity in high fat diet fed dyslipidemic golden Syrian hamster model assessed as change in plasma cholesterol level at 100 mg/kg, po administered once daily from day 4 to day 10 measured on day 10 after 2 hrs of last dose relative to baseline. The format is functional, Mesocricetus auratus.
Test [12] relates to Syrian golden hamster. The test can be described thus: Antidyslipidemic activity in high fat diet fed dyslipidemic golden Syrian hamster model assessed as change in plasma HDL to cholesterol ratio at 100 mg/kg, po administered once daily from day 4 to day 10 measured on day 10 after 2 hrs of last dose relative to baseline. The format is functional, Mesocricetus auratus.
Test [13] deals with Syrian golden hamster. Description: Antidyslipidemic activity in high fat diet fed dyslipidemic golden Syrian hamster model assessed as change in plasma triglyceride level at 100 mg/kg, po administered once daily from day 4 to day 10 measured on day 10 after 2 hrs of last dose relative to baseline. It counts as functional, Mesocricetus auratus.
Test [14] concerns Syrian golden hamster. Description: Antidyslipidemic activity in high fat diet fed dyslipidemic golden Syrian hamster model assessed as change in plasma glycerol level at 100 mg/kg, po administered once daily from day 4 to day 10 measured on day 10 after 2 hrs of last dose relative to baseline. It counts as functional, Mesocricetus auratus.
The test system of test [15] is Syrian golden hamster. Description: Antidyslipidemic activity in high fat diet fed dyslipidemic golden Syrian hamster model assessed as change in plasma HDL-cholesterol level at 100 mg/kg, po administered once daily from day 4 to day 10 measured on day 10 after 2 hrs of last dose relative to baseline. The format is functional, Mesocricetus auratus.
Test [16] deals with Syrian golden hamster. The test can be described thus: Antidyslipidemic activity in high fat diet fed dyslipidemic golden Syrian hamster model assessed as change in plasma HDL-cholesterol level at 108 mg/kg, po administered once daily from day 4 to day 10 measured on day 10 after 2 hrs of last dose. It counts as functional, organism-based. Also noted: dose 108 mg/kg. The conditions noted are these: Mesocricetus auratus.

Test [17] concerns Syrian golden hamster. The test can be described thus: Antidyslipidemic activity in high fat diet fed dyslipidemic golden Syrian hamster model assessed as change in plasma HDL to cholesterol ratio at 108 mg/kg, po administered once daily from day 4 to day 10 measured on day 10 after 2 hrs of last dose. The format is functional, Mesocricetus auratus.
In test [18] the test system is Syrian golden hamster. The test can be described thus: Antidyslipidemic activity in high fat diet fed dyslipidemic golden Syrian hamster model assessed as change in plasma triglyceride level at 108 mg/kg, po administered once daily from day 4 to day 10 measured on day 10 after 2 hrs of last dose. The format is functional, Mesocricetus auratus.
The subject of test [19] is Syrian golden hamster. Description: Antidyslipidemic activity in high fat diet fed dyslipidemic golden Syrian hamster model assessed as change in plasma cholesterol level at 108 mg/kg, po administered once daily from day 4 to day 10 measured on day 10 after 2 hrs of last dose. It counts as functional, Mesocricetus auratus.
Test [20] concerns Syrian golden hamster. Description: Antidyslipidemic activity in high fat diet fed dyslipidemic golden Syrian hamster model assessed as change in plasma glycerol level at 108 mg/kg, po administered once daily from day 4 to day 10 measured on day 10 after 2 hrs of last dose. It counts as functional, Mesocricetus auratus.

The source made the active and inactive calls. The rule behind the calls is not given here.

For the compound `C=C(C)[C@@H]1CC[C@]2(C)CC[C@]3(C)[C@H](CC[C@@H]4[C@@]5(C)CC[C@H](OC(=O)c6cccnc6)C(C)(C)[C@@H]5CC[C@]43C)[C@@H]12`, the Activity with Syrian golden hamster [1] is -30%; with Rattus norvegicus [2], -18.3%; in the test on Syrian golden hamster [3], 5%; in the test on Syrian golden hamster [4], -40%; with Rattus norvegicus [5] it was -25%; in the test on Syrian golden hamster [6] it was 2%. Also, the Activity with Syrian golden hamster [7] was 57%; with Syrian golden hamster [8], 8%; in the test on Syrian golden hamster [9], -24%.

`C=C(C)[C@@H]1CC[C@]2(C)CC[C@]3(C)[C@H](CC[C@@H]4[C@@]5(C)CC[C@H](OC(=O)c6ccc([N+](=O)[O-])cc6)C(C)(C)[C@@H]5CC[C@]43C)[C@@H]12`: the Activity in the test with Syrian golden hamster [1] was -21%; in the test with Rattus norvegicus [2], -14.8%; in the test with Syrian golden hamster [3], -30%; in the test with Syrian golden hamster [4], -20%; in the test on Rattus norvegicus [5], -21.1%; with Syrian golden hamster [6], 6%. For the same compound, the Activity in the test on Syrian golden hamster [7] is 4%; in the test on Syrian golden hamster [8], 4%; with Syrian golden hamster [9], -34%.

Consider `C=C(C)[C@@H]1CC[C@]2(C)CC[C@]3(C)[C@H](CC[C@@H]4[C@@]5(C)CC[C@H](OC(=O)/C=C/c6ccco6)C(C)(C)[C@@H]5CC[C@]43C)[C@@H]12`, for which the Activity is -15.8% with Rattus norvegicus [2] and -18.5% with Rattus norvegicus [5].

For `C=C(C)[C@@H]1CC[C@]2(C)CC[C@]3(C)[C@H](CC[C@@H]4[C@@]5(C)CC[C@H](OC(=O)c6ccc7ccccc7n6)C(C)(C)[C@@H]5CC[C@]43C)[C@@H]12`, the Activity was -20% in the test on Syrian golden hamster [1]; -30% with Syrian golden hamster [3]; -7% in the test on Syrian golden hamster [4]; -8% in the test on Syrian golden hamster [6]; -5% with Syrian golden hamster [7]; 11% in the test with Syrian golden hamster [8]. In addition, the Activity in the test with Syrian golden hamster [9] is given as -27%.

In the case of `C=C(C)[C@@H]1CC[C@]2(C)CC[C@]3(C)[C@H](CC[C@@H]4[C@@]5(C)CC[C@H](OC(=O)Cc6ccccn6)C(C)(C)[C@@H]5CC[C@]43C)[C@@H]12`, the Activity was -20.5% in the test on Rattus norvegicus [2] and -18.2% in the test with Rattus norvegicus [5].

With `C=C(C)[C@@H]1CC[C@]2(C)CC[C@]3(C)[C@H](CC[C@@H]4[C@@]5(C)CC[C@H](OC(=O)Cc6ccc(OC)cc6)C(C)(C)[C@@H]5CC[C@]43C)[C@@H]12`, the Activity in the test on Syrian golden hamster [1] is -8%; with Syrian golden hamster [3], -5%; with Syrian golden hamster [4], 20%; in the test with Syrian golden hamster [6], 4%; in the test with Syrian golden hamster [7] it was 24%; with Syrian golden hamster [8], -4%. Moreover, the Activity with Syrian golden hamster [9] is on record as -25%.

Regarding `C=C(C)[C@@H]1CC[C@]2(C)CC[C@]3(C)[C@H](CC[C@@H]4[C@@]5(C)CC[C@H](OC(=O)/C=C/c6cccnc6)C(C)(C)[C@@H]5CC[C@]43C)[C@@H]12`, the Activity with Rattus norvegicus [2] is on record as -13.4%; in the test on Rattus norvegicus [5] it was -15.7%.

Regarding `C=C(C)[C@@H]1CC[C@]2(C)CC[C@]3(C)[C@H](CC[C@@H]4[C@@]5(C)CC[C@H](OC(=O)c6ccc(Cl)cc6)C(C)(C)[C@@H]5CC[C@]43C)[C@@H]12`, the Activity in the test with Syrian golden hamster [1] was -14%; in the test with Rattus norvegicus [2], -17.8%; in the test with Syrian golden hamster [3], -14%; in the test on Syrian golden hamster [4] it was -11%; with Rattus norvegicus [5], -19.6%; in the test with Syrian golden hamster [6], 5%. In addition, the Activity is given as 14% in the test on Syrian golden hamster [7], 4% with Syrian golden hamster [8] and -27% in the test with Syrian golden hamster [9].

Take `C=C(C)[C@@H]1CC[C@]2(C)CC[C@]3(C)[C@H](CC[C@@H]4[C@@]5(C)CC[C@H](OC(=O)/C=C/c6cccs6)C(C)(C)[C@@H]5CC[C@]43C)[C@@H]12`: the Activity is listed as -12.5% with Rattus norvegicus [2] and -14.9% in the test with Rattus norvegicus [5].

Consider `C=C(C)[C@@H]1CC[C@]2(C)CC[C@]3(C)[C@H](CC[C@@H]4[C@@]5(C)CC[C@H](OC(=O)CCc6cccnc6)C(C)(C)[C@@H]5CC[C@]43C)[C@@H]12`, for which the Activity in the test on Rattus norvegicus [2] was -8.21%; with Rattus norvegicus [5] it was -10.4%.

As to `C=C(C)[C@@H]1CC[C@]2(C)CC[C@]3(C)[C@H](CC[C@@H]4[C@@]5(C)CC[C@H](OC(=O)/C=C/c6ccsc6)C(C)(C)[C@@H]5CC[C@]43C)[C@@H]12`, the Activity in the test with Rattus norvegicus [2] is on record as -16.9%; with Rattus norvegicus [5], -21.5%.

With `C=C(C)[C@@H]1CC[C@]2(C)CC[C@]3(C)[C@H](CC[C@@H]4[C@@]5(C)CC[C@H](OC(=O)CNC(=O)c6ccccc6)C(C)(C)[C@@H]5CC[C@]43C)[C@@H]12`, the Activity in the test with Rattus norvegicus [2] is on record as -13.8%; in the test on Rattus norvegicus [5] it was -23.6%.

On to `C=C(C)[C@@H]1CC[C@]2(C)CC[C@]3(C)[C@H](CC[C@@H]4[C@@]5(C)CC[C@H](O)C(C)(C)[C@@H]5CC[C@]43C)[C@@H]12` [LUPEOL], for which the Activity is on record as -23% in the test on Syrian golden hamster [10]; -9% with Syrian golden hamster [11]; 63% with Syrian golden hamster [12]; -26% with Syrian golden hamster [13]; -10% in the test on Syrian golden hamster [14]; 44% with Syrian golden hamster [15].

On to `CC(C)OC(=O)C(C)(C)Oc1ccc(C(=O)c2ccc(Cl)cc2)cc1` [FENOFIBRATE], for which the outcome with Syrian golden hamster [16] was inactive. The Activity with Syrian golden hamster [17] was 10%; in the test with Syrian golden hamster [18], -42%; in the test with Syrian golden hamster [19], -18%; in the test with Syrian golden hamster [20], -36%.

For the compound `CN(C)C(=N)NC(=N)N` [METFORMIN], the Activity in the test on Rattus norvegicus [2] was -23.5%; with Rattus norvegicus [5], -26.5%.
